Regarding `O=[N+]([O-])c1ccc(Cl)cc1Nc1cccc(Cl)c1`, the melting point is 112 °C.

`COc1nc(-c2ccc(C(=O)O)cc2)cc2cccnc12` gave a melting point of over 300 °C.

As to `COC(=O)c1ccc2c(c1)NC(=O)c1cccnc1N2`, the melting point is 344 to 349 °C.

`COc1ccccc1N1CCN(CCCn2c(=O)[nH]c3ccsc3c2=O)CC1`: the melting point was in the range of 78 to 84 °C.

Turning to `COC(=O)c1ccc(C(=O)CCCOC(C)=O)cc1`, the melting point is 61 to 62 °C.

The molecule `CC(=O)N(C(C)=O)c1ccc(Br)c([N+](=O)[O-])c1OCc1ccccc1` returned a melting point of 148 °C.

On to `Cn1ncc2[nH]c3ccc(Cc4cccc(O)c4)cc3c(=O)c21`, for which the melting point was over 270 °C.

Consider `COC1(OC)CCN(c2cc3c(cc2F)c(=O)c(C(=O)O)cn3-c2ccc(F)cc2F)C1`, for which the melting point was in the range of 228 to 230 °C.

`CC(=O)OCC1OC(n2c(Br)c(C#N)c3cc(Cl)c(Cl)cc32)C(O)C1O` (stereo unspecified) showed a melting point of 103 to 105 °C.

`O=C(c1ccc(OC(F)(F)F)cc1)N1CCc2cc(S(=O)(=O)N3CC(c4ccccc4)NC3=O)ccc21` (stereo unspecified) returned a melting point of 180 to 182 °C.

As to `O=C1C(c2cccn2-c2ccccc2)=CC(=O)c2ncccc21`, the melting point was 132 to 134 °C.

As for `CC(=O)Nc1nc(CCc2ccc(NC(=N)N)cc2)c(Cc2ccc(S(C)(=O)=O)cc2)s1`, the melting point was in the range of 228 to 230 °C.

For `CCOc1ccc(/C=C(\C)C(=O)O)cc1`, the melting point was 180 °C.

Molecule `Cc1cc(C)cc(C(=O)OCC2(N3CCN(C(=O)OC(C)(C)C)CC3)Cc3ccccc3C2)c1` showed a melting point of 139 °C.

In the case of `CCOC(=O)CC(=O)CSc1nc2cc(Cl)c(F)cc2c(O)c1C(=O)OCC`, the melting point fell in the range of 167 to 170 °C.

`Cn1c(SC(C(N)=O)c2ccccc2)nc2ccccc21` (stereo unspecified) had a melting point of 185 to 187 °C.

In turn, `O=C1OC(Cc2ccccc2)CN1c1ccccc1` (stereo unspecified) displayed a melting point of 90 °C.

`CC(C)(C)OC(=O)Nc1cc(OCC2COC(C)(C)O2)c(C#Cc2ccccc2)cc1[N+](=O)[O-]` (racemic) came in with a melting point of 32 °C.

Molecule `CNc1ncc(CO)c(NC2CC2)n1` displayed a melting point of 139 to 140 °C.

With `CCCc1c(OCc2cccc(COc3ccccc3CCC(=O)O)c2)ccc2c1OCCC2=O`, the melting point fell in the range of 132 to 135 °C.

The molecule `COCCC(=O)N[C@H]1CC[C@H](CCN2CCN(c3ncc(C)c4occc34)CC2)CC1` showed a melting point of 177 °C.

In turn, `CNC(=O)N/N=C1/C(=O)N(CCN(C(C)C)C(C)C)c2ccc(C)cc21` showed a melting point of 158 °C.

As to `COC(=O)c1ccccc1S(=O)(=O)NC(=O)Nc1nc(C)cc(CF)n1`, the melting point was in the range of 181 to 186 °C.

Consider `CC(=O)NCCN1CCc2cc(NC(=O)c3ccccc3-c3ccc(C(F)(F)F)cc3)ccc2C1`, for which the melting point was found to be 163 °C.

In turn, `CC1CCc2ccc(Cl)c3c(=O)c(C(=O)O)cn1c23` (stereo unspecified) showed a melting point of 220 to 222 °C.

As to `CCCc1nn(C)c2c(=O)[nH]c(Cc3ccc(-n4cnnc4)cc3)nc12`, the melting point was in the range of 297 to 300 °C.

Molecule `O=C(CC(=O)c1ccc(C(=O)CC(=O)c2ccccc2)cc1)c1ccccc1` gave a melting point of 175 to 177 °C.

`COC(=O)c1ccccc1Oc1ccc(C)cc1[N+](=O)[O-]` yielded a melting point of 71 to 73 °C.

Turning to `CCN1C(=O)C(C)(C)C(=O)N(C)c2cc(CN(CCn3ccc4oc(C)cc4c3=O)c3cccc4ncccc34)ccc21`, the melting point is 166 to 168 °C.

`O=C(NN1CCOCC1)OCCCCCCOC(=O)NN1CCOCC1` returned a melting point of 197 to 199 °C.

As to `CC(C)(C#N)Cc1cccc(-c2cccc(CC(C)(C)C#N)c2)c1`, the melting point was 96 to 103 °C.

Regarding `COC(=O)NNc1cc(C)c(-c2ccc(C#N)cc2)nn1`, the melting point fell in the range of 191 to 192 °C.

In the case of `COc1cc[nH]c1C=C1C(=O)Nc2cccc(C#CC(O)c3sccc3OC)c21` (racemic), the melting point lay within 213 to 216 °C.

The molecule `CCCCOCCOc1ccc(-c2ccc3c(c2)C=C(C(=O)O)CCN3CCCOC)cc1` yielded a melting point of 99 to 101 °C.

Regarding `O=C(O)c1ncsc1-c1cc(F)cc(F)c1`, the melting point is 200 °C.

`Cc1c(C)c2c(c([N+](=O)[O-])c1C)OC(C)(C)C2` had a melting point of 100 to 101 °C.

As for `COc1ccc(C2=NN(C3CCN(C(=O)CN4C(=O)COCC4=O)CC3)C(=O)C(C)(C)C2)cc1OC`, the melting point was 210 to 211 °C.

As to `COc1nc(Nc2cc(C)ccc2N)nc(OC)n1`, the melting point lay in the range of 180 to 183 °C.

Consider `O=Cc1ccc(OCCCC(=O)O)c(Cl)c1`, for which the melting point lay in the range of 128 to 131 °C.

Take `O=C1N(Cc2cccc(C(F)(F)F)c2)c2ccccc2C12COc1cc3c(cc12)OCCO3` (stereo unspecified): the melting point was 131 to 134 °C.

Take `CCCCCCCCC(Br)C(=O)Nc1c(OC)cc(OC)cc1OC` (stereo unspecified): the melting point is 109 to 110 °C.

As for `Cc1cccc(-c2n[nH]cc2-c2ccc(F)c(-c3ccc(C(C)(C)O)cn3)c2)n1`, the melting point was in the range of 169 to 172 °C.

In turn, `Cc1ccc(S(=O)(=O)OCC(COC(C)(C)C)OS(=O)(=O)c2ccc(C)cc2)cc1` (single isomer, unassigned; (+)) came in with a melting point of 70 to 71 °C.

For `COc1ccc(CC2SC(=O)NC2=O)cc1C(=O)NCc1ccc([N+](=O)[O-])cc1` (stereo unspecified), the melting point lay within 236 to 238 °C.

`COCOc1ccc(C(C)=O)c(O)c1` had a melting point of 38 to 39 °C.

For `COc1c(C)c2c(c(N)c1C/C=C(\C)CCC(=O)O)C(=O)OC2`, the melting point was in the range of 130 to 131 °C.

Molecule `Cc1c(C)c2c(c(C)c1O)CCC(C)(C(=O)N1CC(Oc3ccc(NC(=O)OC(C)(C)C)cc3)C1)O2` (stereo unspecified) displayed a melting point of 182 to 183 °C.

`CN(C)C1(c2ccccc2)CCC2(OCCc3c2[nH]c2ccc(F)cc32)C(F)C1` (stereo unspecified): the melting point fell in the range of 237 to 242 °C.

Consider `Cc1cccc(NC(=O)c2nc(-c3ccccc3)c3ccccc3c2O)n1`, for which the melting point fell in the range of 261 to 263 °C.

`O=C1N[C@H](Cc2ccc(F)cc2)[C@H](c2ccc(F)cc2)O1` (racemic): the melting point lay within 197 to 198 °C.

The molecule `CCNC(=C[N+](=O)[O-])SC` had a melting point of 66 to 67.5 °C.

Regarding `[O-][N+]1=C(c2ccccc2F)c2cc(Cl)ccc2-n2cnc(N3CCCC3)c2C1`, the melting point lay within 190 to 192 °C.

`CCN1CCc2cc(OC)c(OC)cc2C1C1CC(C(=O)N2CCN(c3ccccn3)CC2)CCC12c1cc(OC)c(OC)cc1CCN2CC` (stereo unspecified): the melting point lay within 115 to 117 °C.

Molecule `CC[C@H]1[C@@H](O)C(F)(F)C(=O)N1c1ccc(C#N)c(Cl)c1` came in with a melting point of 137 to 140 °C.

With `CCCCCNc1cc(C(=O)OCCCCC)cc(S(N)(=O)=O)c1Oc1ccccc1`, the melting point lay within 138 to 139 °C.

As for `CCCc1nc(C(O)C(C)(C)C)c(C#N)n1Cc1ccc(-c2ccccc2-c2nnnn2C(c2ccccc2)(c2ccccc2)c2ccccc2)cc1` (stereo unspecified), the melting point lay in the range of 115 to 117 °C.

`Cc1cc(C)c2nc(C)c(C(=O)O)c(-c3ccccc3Cl)c2c1` yielded a melting point of 278 to 279 °C.

In turn, `COc1ccc2c(c1)c(Cc1nc(-c3ccc([N+](=O)[O-])cc3)cs1)c(C)n2Cc1ccc(Br)cc1` had a melting point of 205 to 207 °C.

For the molecule `CCOC(=O)COc1ccc(C(=O)CCC(=O)O)cc1Cl`, the melting point was 137 to 139 °C.

Molecule `COc1ccc(C(=O)Nc2ccc(C)cc2)cc1N` displayed a melting point of 190 to 194 °C.

The molecule `COc1ccc(-c2nnc3c4ccccc4c(Nc4ccc(C#N)cc4)nn23)cc1` registered a melting point of 314 °C.

For the molecule `Cc1cc(C)c2c(n1)N(CCCCl)c1ccccc1N(C)C2=O`, the melting point is 161 to 163 °C.

Molecule `CC1CN(c2ccc([N+](=O)[O-])cc2Cl)C(=O)O1` (stereo unspecified) gave a melting point of 73 to 75 °C.

`N#Cc1ccc2nc3c(c(=O)n2c1)CSC3` returned a melting point of 256 to 257 °C.

Regarding `CN1C(=O)CC[C@]2(C)c3ccc(Sc4nc5ccc(Cl)cc5s4)cc3CC[C@@H]12`, the melting point lay in the range of 156 to 162 °C.

For `COc1ccc(C(=O)Nc2ccccc2)cc1NC(=S)Nc1ccc(OC)c(OC)c1`, the melting point was in the range of 170 to 171 °C.

Molecule `O=S1NC(Cc2coc3ccc(Cl)cc23)=NO1` (stereo unspecified) gave a melting point of 140 °C.

As to `CCOC(=O)c1ncc2[nH]c3ccc(Oc4ccc(Br)cn4)cc3c2c1COC`, the melting point fell in the range of 210 to 212 °C.

Take `OC(c1ccccc1)(c1ccccc1-c1ccccc1)C1CCNCC1` (stereo unspecified): the melting point lay in the range of 185 to 186 °C.

Molecule `Cc1cc(-n2ccnc2)c2cccc(OCc3c(Cl)ccc(S(=O)(=O)N4CCC[C@H]4C(=O)NCC4CCN(C)CC4)c3Cl)c2n1` registered a melting point of 86 °C.

For `COC(=O)C(=Cc1ccc(F)c(Cl)c1)N=[N+]=[N-]`, the melting point was 72 to 74 °C.

`CN(c1ccc(OC(F)(F)C(F)F)cc1)c1c([N+](=O)[O-])cc([N+](=O)[O-])cc1C(F)(F)F` had a melting point of 91 to 92 °C.

As for `CC(=O)OCCn1cnc2c(Cl)nc(Nc3ccccc3)nc21`, the melting point is 193 to 194 °C.

In the case of `CCCCn1c(=O)c(NC(=O)Nc2c(C(C)C)cc(CN)cc2C(C)C)c(-c2cccc(OC)c2)c2cccnc21`, the melting point lay in the range of 186 to 187 °C.

Consider `CNc1snc(C)c1[N+](=O)[O-]`, for which the melting point is 153 °C.

In the case of `OCc1nc(-c2ccccc2)ccc1Cl`, the melting point was in the range of 69 to 70 °C.

`CC1Cn2c(=O)[nH]c3cccc(c32)CN1CCc1ccccc1` (stereo unspecified) returned a melting point of 150 °C.

Molecule `CN(C)c1ccc2cc(C(/C=C\NCCO)=C(C#N)C#N)ccc2c1` displayed a melting point of 168 to 170 °C.

With `CC[C@@]1(C=O)CCCN(CCc2c[nH]c3ccc(F)cc23)C1=O`, the melting point is 116 °C.

As to `CONS(=O)(=O)c1c(C)nn(C)c1Cl`, the melting point was in the range of 120 to 122 °C.

Molecule `COC(=O)C1Cc2c([nH]c3ccccc23)C(c2ccoc2)N1` (stereo unspecified) registered a melting point of 130 °C.

`C=Cc1c(C(=O)OC)cccc1[N+](=O)[O-]` returned a melting point of 44 to 45 °C.

`Fc1cccc(COc2ccc(I)cc2)c1`: the melting point stood at 48 °C.

In the case of `Nc1nc(OC(F)F)cc(OC(F)F)n1`, the melting point fell in the range of 67 to 69 °C.

Take `COC(=O)COC(=O)C(Cc1cc(=O)[nH]c2ccccc12)NC(=O)c1ccc(Cl)cc1` (stereo unspecified): the melting point lay within 202 to 204 °C.

As to `CC[C@H](COC)n1cc(Cl)nc(N2CCc3cc(OC)cc(C)c32)c1=O`, the melting point lay within 62 to 64 °C.

These data come from a melting point compilation (Tetko et al.; mined from patent text by program, amines drawn as free bases though some values may be those of a salt).
